The compounds below were run against Protein kinase C alpha type (Homo sapiens) (UniProt P17252) (assay: Inhibition of human PKCalpha assessed as residual activity at 1 uM relative to control).

Compound	Activity [%]
COc1ccc(-c2nc3cc(-c4csc(C(=O)NCC(C)(C)C)c4)cnc3[nH]2)cc1	91
COc1ccc(-c2nc3cc(-c4csc(C(=O)NCC(C)C)c4)cnc3[nH]2)cc1	101
COc1ccc(-c2nc3cc(-c4csc(C(=O)NCCC(C)C)c4)cnc3[nH]2)cc1	89

What follows are compounds tested against PI3-kinase p110-delta/p85-alpha (Homo sapiens) (UniProt P27986+O00329) (assay: Inhibition of human PI3K p110delta/p85alpha assessed as residual activity at 1 uM relative to control).
Type: protein-complex assay

Compound	Activity [%]
COc1ccc(-c2nc3cc(-c4csc(C(=O)NCC(C)(C)C)c4)cnc3[nH]2)cc1	91
COc1ccc(-c2nc3cc(-c4csc(C(=O)NCC(C)C)c4)cnc3[nH]2)cc1	94
COc1ccc(-c2nc3cc(-c4csc(C(=O)NCCC(C)C)c4)cnc3[nH]2)cc1	95

These compounds were tested against PI3K p110 beta/p85 alpha (Homo sapiens) (UniProt P27986+P42338) (assay: Inhibition of human PI3K p110beta/p85alpha assessed as residual activity at 1 uM relative to control).
Type: protein-complex assay

PI3K p110 beta/p85 alpha (Homo sapiens), sequence (P27986 2-724 limits assumed): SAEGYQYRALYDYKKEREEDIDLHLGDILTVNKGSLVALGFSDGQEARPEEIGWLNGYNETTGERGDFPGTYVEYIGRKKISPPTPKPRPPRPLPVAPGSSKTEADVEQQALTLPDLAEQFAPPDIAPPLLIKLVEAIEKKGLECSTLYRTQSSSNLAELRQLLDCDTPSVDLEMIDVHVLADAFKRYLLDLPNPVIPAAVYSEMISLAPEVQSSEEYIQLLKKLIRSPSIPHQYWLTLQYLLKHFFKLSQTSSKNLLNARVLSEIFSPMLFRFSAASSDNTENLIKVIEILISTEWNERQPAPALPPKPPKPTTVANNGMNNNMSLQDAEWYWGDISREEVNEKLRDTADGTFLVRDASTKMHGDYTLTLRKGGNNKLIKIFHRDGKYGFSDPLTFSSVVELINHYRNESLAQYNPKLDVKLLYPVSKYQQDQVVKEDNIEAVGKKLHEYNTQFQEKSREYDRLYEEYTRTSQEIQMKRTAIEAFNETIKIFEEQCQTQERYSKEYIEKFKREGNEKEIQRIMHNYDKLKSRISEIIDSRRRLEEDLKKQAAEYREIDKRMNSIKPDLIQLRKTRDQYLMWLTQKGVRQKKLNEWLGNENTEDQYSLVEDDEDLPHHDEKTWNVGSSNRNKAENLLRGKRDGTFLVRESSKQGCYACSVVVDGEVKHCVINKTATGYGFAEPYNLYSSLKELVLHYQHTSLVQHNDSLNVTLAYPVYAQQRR
PI3K p110 beta/p85 alpha (Homo sapiens), sequence (P42338 whole entry partner): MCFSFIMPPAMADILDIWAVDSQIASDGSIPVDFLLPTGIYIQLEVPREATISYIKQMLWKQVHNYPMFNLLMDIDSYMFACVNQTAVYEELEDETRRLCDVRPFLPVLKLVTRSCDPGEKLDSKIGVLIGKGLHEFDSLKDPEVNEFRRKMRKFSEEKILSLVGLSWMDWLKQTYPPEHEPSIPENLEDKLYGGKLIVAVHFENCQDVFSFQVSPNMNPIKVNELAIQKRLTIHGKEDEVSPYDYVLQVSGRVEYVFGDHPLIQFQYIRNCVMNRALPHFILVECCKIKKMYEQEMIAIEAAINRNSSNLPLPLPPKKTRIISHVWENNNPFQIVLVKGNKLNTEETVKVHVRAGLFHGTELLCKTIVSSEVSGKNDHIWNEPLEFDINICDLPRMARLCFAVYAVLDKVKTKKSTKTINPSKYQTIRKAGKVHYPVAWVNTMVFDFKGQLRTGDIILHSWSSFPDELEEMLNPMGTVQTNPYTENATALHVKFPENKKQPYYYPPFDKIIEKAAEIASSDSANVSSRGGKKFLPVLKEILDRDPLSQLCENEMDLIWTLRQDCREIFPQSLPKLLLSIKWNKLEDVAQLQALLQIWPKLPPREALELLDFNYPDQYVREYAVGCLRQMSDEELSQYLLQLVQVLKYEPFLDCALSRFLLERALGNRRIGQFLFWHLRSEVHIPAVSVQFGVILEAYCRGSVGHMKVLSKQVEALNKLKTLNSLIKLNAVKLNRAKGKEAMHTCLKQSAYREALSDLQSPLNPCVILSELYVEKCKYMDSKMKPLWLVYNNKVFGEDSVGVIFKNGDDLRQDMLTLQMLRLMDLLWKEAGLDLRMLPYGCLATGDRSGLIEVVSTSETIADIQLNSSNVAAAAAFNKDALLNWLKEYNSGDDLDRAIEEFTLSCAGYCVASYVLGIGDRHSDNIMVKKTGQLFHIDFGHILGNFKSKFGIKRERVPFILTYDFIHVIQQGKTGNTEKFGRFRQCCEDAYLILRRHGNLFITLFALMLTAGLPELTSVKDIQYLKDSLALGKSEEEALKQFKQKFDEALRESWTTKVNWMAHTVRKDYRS

Compound	Activity [%]
COc1ccc(-c2nc3cc(-c4csc(C(=O)NCC(C)(C)C)c4)cnc3[nH]2)cc1	89
COc1ccc(-c2nc3cc(-c4csc(C(=O)NCC(C)C)c4)cnc3[nH]2)cc1	89
COc1ccc(-c2nc3cc(-c4csc(C(=O)NCCC(C)C)c4)cnc3[nH]2)cc1	92

Each compound was assayed against Casein kinase II subunit alpha' (Homo sapiens) (UniProt P19784) (assay: Inhibition of human CK2-alpha2 assessed as residual activity at 1 uM relative to control).

Compound	Activity [%]
COc1ccc(-c2nc3cc(-c4csc(C(=O)NCC(C)(C)C)c4)cnc3[nH]2)cc1	74
COc1ccc(-c2nc3cc(-c4csc(C(=O)NCC(C)C)c4)cnc3[nH]2)cc1	91
COc1ccc(-c2nc3cc(-c4csc(C(=O)NCCC(C)C)c4)cnc3[nH]2)cc1	59

What follows are compounds tested against Tyrosine-protein kinase Lck (Homo sapiens) (UniProt P06239) (assay: Inhibition of human LCK assessed as residual activity at 1 uM relative to control).
Tyrosine-protein kinase Lck (Homo sapiens), sequence (P06239 2-509 limits assumed): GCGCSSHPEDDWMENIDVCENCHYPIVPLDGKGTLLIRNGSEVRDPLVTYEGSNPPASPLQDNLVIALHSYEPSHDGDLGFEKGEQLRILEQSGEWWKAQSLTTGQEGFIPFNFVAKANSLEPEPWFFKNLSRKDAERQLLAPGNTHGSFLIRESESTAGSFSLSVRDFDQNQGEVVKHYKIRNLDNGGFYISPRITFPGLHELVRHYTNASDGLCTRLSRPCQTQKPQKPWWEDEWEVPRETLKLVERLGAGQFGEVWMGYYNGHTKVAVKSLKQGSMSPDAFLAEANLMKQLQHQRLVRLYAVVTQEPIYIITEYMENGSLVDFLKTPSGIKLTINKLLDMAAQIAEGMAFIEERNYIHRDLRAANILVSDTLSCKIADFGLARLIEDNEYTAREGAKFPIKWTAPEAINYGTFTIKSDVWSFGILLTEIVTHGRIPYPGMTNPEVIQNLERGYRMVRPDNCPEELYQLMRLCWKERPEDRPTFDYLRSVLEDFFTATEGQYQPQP

Compound	Activity [%]
COc1ccc(-c2nc3cc(-c4csc(C(=O)NCC(C)(C)C)c4)cnc3[nH]2)cc1	64
COc1ccc(-c2nc3cc(-c4csc(C(=O)NCC(C)C)c4)cnc3[nH]2)cc1	44
COc1ccc(-c2nc3cc(-c4csc(C(=O)NCCC(C)C)c4)cnc3[nH]2)cc1	31

What follows are compounds tested against T1, Serine/threonine-protein kinase ULK2 (Homo sapiens) (UniProt Q8IYT8) (assay: Inhibition of human ULK2 assessed as residual activity at 1 uM relative to control).
T1 sequence (whole entry): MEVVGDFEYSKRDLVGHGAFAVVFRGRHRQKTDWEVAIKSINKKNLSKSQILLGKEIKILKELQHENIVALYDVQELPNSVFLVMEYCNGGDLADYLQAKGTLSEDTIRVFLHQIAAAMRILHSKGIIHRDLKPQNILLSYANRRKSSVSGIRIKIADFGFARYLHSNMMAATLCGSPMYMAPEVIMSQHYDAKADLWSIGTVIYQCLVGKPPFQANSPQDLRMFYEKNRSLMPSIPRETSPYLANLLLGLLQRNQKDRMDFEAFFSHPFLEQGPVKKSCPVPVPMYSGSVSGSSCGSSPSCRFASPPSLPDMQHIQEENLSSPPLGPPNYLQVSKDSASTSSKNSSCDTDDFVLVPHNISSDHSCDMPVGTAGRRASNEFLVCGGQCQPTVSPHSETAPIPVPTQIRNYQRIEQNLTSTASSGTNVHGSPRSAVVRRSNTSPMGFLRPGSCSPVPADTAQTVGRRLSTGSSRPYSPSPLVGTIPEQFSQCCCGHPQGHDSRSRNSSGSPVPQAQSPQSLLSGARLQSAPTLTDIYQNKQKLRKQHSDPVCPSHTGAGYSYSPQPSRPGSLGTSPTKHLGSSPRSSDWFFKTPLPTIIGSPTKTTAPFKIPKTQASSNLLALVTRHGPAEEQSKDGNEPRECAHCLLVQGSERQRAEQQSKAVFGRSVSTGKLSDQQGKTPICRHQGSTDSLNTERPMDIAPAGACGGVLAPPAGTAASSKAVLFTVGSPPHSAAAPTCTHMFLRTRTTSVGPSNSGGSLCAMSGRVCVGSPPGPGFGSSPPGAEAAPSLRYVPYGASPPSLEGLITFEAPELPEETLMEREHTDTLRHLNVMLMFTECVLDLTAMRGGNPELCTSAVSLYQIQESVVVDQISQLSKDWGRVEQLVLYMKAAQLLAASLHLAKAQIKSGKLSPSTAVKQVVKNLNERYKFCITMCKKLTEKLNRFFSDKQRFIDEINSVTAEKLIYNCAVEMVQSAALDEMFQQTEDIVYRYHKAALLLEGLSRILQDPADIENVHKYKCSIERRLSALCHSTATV

Compound	Activity [%]
COc1ccc(-c2nc3cc(-c4csc(C(=O)NCC(C)(C)C)c4)cnc3[nH]2)cc1	53
COc1ccc(-c2nc3cc(-c4csc(C(=O)NCC(C)C)c4)cnc3[nH]2)cc1	42
COc1ccc(-c2nc3cc(-c4csc(C(=O)NCCC(C)C)c4)cnc3[nH]2)cc1	40

These compounds were tested against Tyrosine-protein kinase Blk (Homo sapiens) (UniProt P51451) (assay: Inhibition of human BLK assessed as residual activity at 1 uM relative to control).
Tyrosine-protein kinase Blk (Homo sapiens), sequence (P51451 2-505 limits assumed): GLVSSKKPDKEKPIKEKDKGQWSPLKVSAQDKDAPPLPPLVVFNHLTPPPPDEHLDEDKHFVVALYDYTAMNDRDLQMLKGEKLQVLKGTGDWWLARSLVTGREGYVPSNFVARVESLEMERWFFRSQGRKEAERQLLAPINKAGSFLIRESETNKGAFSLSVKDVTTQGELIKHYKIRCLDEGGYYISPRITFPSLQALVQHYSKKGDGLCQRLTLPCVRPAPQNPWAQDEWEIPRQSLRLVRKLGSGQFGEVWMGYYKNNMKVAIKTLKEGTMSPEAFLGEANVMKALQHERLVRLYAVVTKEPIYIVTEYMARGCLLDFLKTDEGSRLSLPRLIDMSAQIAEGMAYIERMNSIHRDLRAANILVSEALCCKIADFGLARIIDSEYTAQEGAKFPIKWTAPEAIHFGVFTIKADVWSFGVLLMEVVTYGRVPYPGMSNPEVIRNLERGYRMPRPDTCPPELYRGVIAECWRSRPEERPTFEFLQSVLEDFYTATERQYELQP

Compound	Activity [%]
COc1ccc(-c2nc3cc(-c4csc(C(=O)NCC(C)(C)C)c4)cnc3[nH]2)cc1	48
COc1ccc(-c2nc3cc(-c4csc(C(=O)NCC(C)C)c4)cnc3[nH]2)cc1	25
COc1ccc(-c2nc3cc(-c4csc(C(=O)NCCC(C)C)c4)cnc3[nH]2)cc1	13

Each compound was assayed against T2, MAP kinase-activated protein kinase 5 (Homo sapiens) (UniProt Q8IW41) (assay: Inhibition of human PRAK assessed as residual activity at 1 uM relative to control).
T2 sequence (whole entry): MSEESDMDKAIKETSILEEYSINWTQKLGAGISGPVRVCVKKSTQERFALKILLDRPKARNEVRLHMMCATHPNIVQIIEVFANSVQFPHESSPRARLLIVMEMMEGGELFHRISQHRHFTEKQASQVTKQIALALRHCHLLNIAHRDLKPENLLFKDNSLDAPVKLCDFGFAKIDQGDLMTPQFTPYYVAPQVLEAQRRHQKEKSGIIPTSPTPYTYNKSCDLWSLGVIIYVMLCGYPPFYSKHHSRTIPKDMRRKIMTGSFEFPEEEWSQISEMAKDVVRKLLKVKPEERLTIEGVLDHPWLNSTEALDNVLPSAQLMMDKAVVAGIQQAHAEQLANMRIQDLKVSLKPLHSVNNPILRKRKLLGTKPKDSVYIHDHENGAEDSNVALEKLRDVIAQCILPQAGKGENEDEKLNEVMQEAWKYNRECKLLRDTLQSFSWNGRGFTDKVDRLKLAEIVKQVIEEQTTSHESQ

Compound	Activity [%]
COc1ccc(-c2nc3cc(-c4csc(C(=O)NCC(C)(C)C)c4)cnc3[nH]2)cc1	115
COc1ccc(-c2nc3cc(-c4csc(C(=O)NCC(C)C)c4)cnc3[nH]2)cc1	112
COc1ccc(-c2nc3cc(-c4csc(C(=O)NCCC(C)C)c4)cnc3[nH]2)cc1	102

The compounds below were run against Rho-associated protein kinase 2 (Homo sapiens) (UniProt O75116) (assay: Inhibition of human ROCK-2 assessed as residual activity at 1 uM relative to control).
Rho-associated protein kinase 2 (Homo sapiens), sequence (O75116 whole entry, looked up): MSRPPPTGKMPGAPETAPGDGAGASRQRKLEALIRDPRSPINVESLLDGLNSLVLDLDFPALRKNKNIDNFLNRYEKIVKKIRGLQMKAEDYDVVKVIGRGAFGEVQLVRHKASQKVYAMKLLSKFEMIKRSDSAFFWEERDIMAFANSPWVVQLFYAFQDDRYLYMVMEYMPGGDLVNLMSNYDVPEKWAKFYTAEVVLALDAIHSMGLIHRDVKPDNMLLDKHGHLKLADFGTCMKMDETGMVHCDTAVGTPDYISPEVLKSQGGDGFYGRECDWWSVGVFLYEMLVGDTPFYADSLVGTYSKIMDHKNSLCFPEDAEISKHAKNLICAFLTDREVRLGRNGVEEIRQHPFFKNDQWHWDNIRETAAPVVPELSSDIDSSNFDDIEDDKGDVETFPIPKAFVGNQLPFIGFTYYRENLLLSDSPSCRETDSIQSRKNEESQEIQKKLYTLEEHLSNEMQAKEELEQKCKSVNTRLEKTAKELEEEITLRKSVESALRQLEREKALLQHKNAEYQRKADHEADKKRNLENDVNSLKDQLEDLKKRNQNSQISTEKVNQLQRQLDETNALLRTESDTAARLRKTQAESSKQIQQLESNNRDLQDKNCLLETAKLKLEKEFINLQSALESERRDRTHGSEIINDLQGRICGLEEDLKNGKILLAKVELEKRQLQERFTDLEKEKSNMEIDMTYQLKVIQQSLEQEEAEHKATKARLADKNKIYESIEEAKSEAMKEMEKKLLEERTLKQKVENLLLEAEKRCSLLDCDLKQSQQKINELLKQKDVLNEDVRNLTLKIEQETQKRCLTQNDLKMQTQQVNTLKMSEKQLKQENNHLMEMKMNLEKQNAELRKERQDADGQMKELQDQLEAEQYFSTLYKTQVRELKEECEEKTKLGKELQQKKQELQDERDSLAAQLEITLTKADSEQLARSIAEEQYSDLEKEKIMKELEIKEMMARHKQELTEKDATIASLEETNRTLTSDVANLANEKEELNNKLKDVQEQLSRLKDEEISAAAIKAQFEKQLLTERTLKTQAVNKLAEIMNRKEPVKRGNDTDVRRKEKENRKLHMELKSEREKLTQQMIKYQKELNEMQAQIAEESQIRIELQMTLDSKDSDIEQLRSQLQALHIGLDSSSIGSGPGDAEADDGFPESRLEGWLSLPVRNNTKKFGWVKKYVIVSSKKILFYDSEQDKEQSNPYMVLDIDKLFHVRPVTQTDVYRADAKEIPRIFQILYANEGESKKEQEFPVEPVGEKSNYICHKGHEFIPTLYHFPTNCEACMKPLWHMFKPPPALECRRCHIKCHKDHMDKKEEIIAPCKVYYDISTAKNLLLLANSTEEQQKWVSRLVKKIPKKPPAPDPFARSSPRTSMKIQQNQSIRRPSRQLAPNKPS

Compound	Activity [%]
COc1ccc(-c2nc3cc(-c4csc(C(=O)NCC(C)(C)C)c4)cnc3[nH]2)cc1	108
COc1ccc(-c2nc3cc(-c4csc(C(=O)NCC(C)C)c4)cnc3[nH]2)cc1	108
COc1ccc(-c2nc3cc(-c4csc(C(=O)NCCC(C)C)c4)cnc3[nH]2)cc1	102

Each compound was assayed against T3, Myotonin-protein kinase (Homo sapiens) (UniProt Q09013) (assay: Inhibition of human DMPK assessed as residual activity at 1 uM relative to control).
T3 sequence (whole entry): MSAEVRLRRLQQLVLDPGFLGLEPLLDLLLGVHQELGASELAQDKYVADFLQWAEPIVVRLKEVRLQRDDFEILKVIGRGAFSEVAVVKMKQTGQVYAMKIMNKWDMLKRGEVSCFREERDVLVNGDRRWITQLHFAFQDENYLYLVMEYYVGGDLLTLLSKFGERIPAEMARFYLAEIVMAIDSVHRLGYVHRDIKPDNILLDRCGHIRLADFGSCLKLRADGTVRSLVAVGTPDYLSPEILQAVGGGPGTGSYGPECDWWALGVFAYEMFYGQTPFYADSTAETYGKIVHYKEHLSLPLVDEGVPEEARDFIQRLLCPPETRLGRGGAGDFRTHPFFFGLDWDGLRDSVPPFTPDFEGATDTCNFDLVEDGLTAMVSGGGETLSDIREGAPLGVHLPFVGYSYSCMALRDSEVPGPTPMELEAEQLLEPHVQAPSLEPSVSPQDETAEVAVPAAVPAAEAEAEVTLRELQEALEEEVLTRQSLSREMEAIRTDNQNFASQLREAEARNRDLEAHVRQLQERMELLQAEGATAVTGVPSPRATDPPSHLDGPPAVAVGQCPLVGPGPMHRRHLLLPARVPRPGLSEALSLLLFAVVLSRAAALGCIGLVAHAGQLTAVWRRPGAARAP

Compound	Activity [%]
COc1ccc(-c2nc3cc(-c4csc(C(=O)NCC(C)(C)C)c4)cnc3[nH]2)cc1	104
COc1ccc(-c2nc3cc(-c4csc(C(=O)NCC(C)C)c4)cnc3[nH]2)cc1	97
COc1ccc(-c2nc3cc(-c4csc(C(=O)NCCC(C)C)c4)cnc3[nH]2)cc1	100

Each compound was assayed against 3-phosphoinositide-dependent protein kinase 1 (Homo sapiens) (UniProt O15530) (assay: Inhibition of human PDK1 assessed as residual activity at 1 uM relative to control).
3-phosphoinositide-dependent protein kinase 1 (Homo sapiens), sequence (O15530 whole entry, looked up): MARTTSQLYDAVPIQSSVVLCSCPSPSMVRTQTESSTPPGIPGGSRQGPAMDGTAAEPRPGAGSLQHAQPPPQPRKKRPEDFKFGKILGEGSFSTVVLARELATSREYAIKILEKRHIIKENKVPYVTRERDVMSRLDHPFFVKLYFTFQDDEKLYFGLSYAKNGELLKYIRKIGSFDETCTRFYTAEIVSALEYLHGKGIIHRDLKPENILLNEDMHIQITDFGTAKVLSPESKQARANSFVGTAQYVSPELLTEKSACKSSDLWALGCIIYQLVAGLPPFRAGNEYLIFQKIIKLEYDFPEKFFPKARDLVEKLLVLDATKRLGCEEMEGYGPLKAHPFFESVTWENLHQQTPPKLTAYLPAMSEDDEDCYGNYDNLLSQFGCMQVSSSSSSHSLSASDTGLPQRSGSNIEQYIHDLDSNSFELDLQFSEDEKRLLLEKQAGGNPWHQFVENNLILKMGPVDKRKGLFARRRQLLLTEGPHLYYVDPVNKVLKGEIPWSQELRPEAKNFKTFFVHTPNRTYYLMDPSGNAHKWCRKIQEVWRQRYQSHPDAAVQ

Compound	Activity [%]
COc1ccc(-c2nc3cc(-c4csc(C(=O)NCC(C)(C)C)c4)cnc3[nH]2)cc1	85
COc1ccc(-c2nc3cc(-c4csc(C(=O)NCC(C)C)c4)cnc3[nH]2)cc1	91
COc1ccc(-c2nc3cc(-c4csc(C(=O)NCCC(C)C)c4)cnc3[nH]2)cc1	80

Source: ChEMBL document CHEMBL3124838, “Discovery of 6-aryl-azabenzimidazoles that inhibit the TBK1/IKK-ε kinases” (Bioorg Med Chem Lett, 2014)
